Experimental data reported in patent publication US20210347823A1, “METHODS OF PHYSICOCHEMICAL-GUIDED PEPTIDE DESIGN AND NOVEL PEPTIDES DERIVED THEREFROM” (Massachusetts Institute of Technology, priority 2018, published 2021).

Assays:
human red blood cells = assay: Hemolytic activity assay; format: cell-based; conditions: for HC50: concentration needed for 50% hemolysis, human RBC in PBS, room temperature, 1 h, 0.1-100 μmol L^−1; for hemolytic activity: range of concentrations evaluated 0-100 μmol L^−1
Method: FIGS. 6A-6B. Hemolysis and resistance to protease-mediated degradation of engineered peptides. FIG. 6A. Schematic of experimental design and hemolytic assay results of Pol-CP—NH2 and derivatives, where hemolytic activity was evaluated by incubating the peptides (0.1-100 μmol L^−1) with human red blood cells in PBS at room temperature for 1 h. Experiments were performed in triplicate, (*p<0.05). FIG. 6B. Resistance to degradation of Pol-CP—NH2 and analogs exposed to fetal bovine serum (FBS) proteases for 6 h. Experiments were done in triplicate.
Hemolytic Activity Assays. Human erythrocytes were collected and washed three times by centrifugation at 300×g with PBS (pH 7.4). After the last centrifugation, the cells were resuspended in PBS pH 7.4. Aliquots at a concentration of 0.1 to 100 ? mol L^−1 of the peptides were added to the 96-well microplate, where in each well containing 50 ? L of a suspension of erythrocytes to 0.4% in a phosphate saline buffer (10 mmol L^−1 Na2HPO4, 1.8 mmol L^−1 […], pH 7.4, 137 mmol L^−1 NaCl and 2.7 mmol L^−1KCl). After that, the samples were incubated at room temperature for 1 h. Hemolysis was determined by reading absorbance at 405 nm of each well in a bed of plates. 1% SDS in PBS solution was used as positive control (Shalel S. et al., J. Colloid Interface Sci. 252, 66-76 (2002); Love L. J. Cell. Comp. Physiol. 36, 133-148 (1950)) and as negative control was used PBS only. MHC was defined as the maximal non-hemolytic concentration.

[1] = Mouse body weight / toxicity in the skin infection model; format: in vivo, mice; conditions: for mouse body weight: peptides used at 64 mol L^−1 (so in the source), compared to untreated mice
Method: FIGS. 8A-8D. In vivo activity of Pol-CP—NH2 and its analogs. FIG. 8A. Schematic of the experimental design. Briefly, the back of mice was shaved and an abrasion was generated to damage the stratum corneum and the upper layer of the epidermis. Subsequently, an aliquot of 50 μL containing 5×10^7 CFU of P. aeruginosa in PBS was inoculated over each defined area. One day after the infection, peptides (4 μmol L^−1) were administered to the infected area. Animals were euthanized and the area of scarified skin was excised two and four days post-infection (FIG. 8B) homogenized using a bead beater for 20 minutes (25 Hz), and serially diluted for CFU quantification (****p<0.0001). FIG. 8C. Mouse body weight measurements throughout the experiment normalized by the body weight of non-infected mice. […] FIG. 8D. Longer experiment (four days) using a higher concentration (64 μmol L^−1) of peptides Pol-CP—NH2 and [Lys]'-Pol-CP—NH2 (****p<0.0001).
Scarification Skin Infection Mouse Model. P. aeruginosa strain PA14 was grown to an optical density at 600 nm (OD600) of 1 in tryptic soy broth (TSB) medium. Subsequently cells were washed twice with sterile PBS (pH 7.4, 13,000 rpm for 1 minute), and resuspended to a final concentration of 5×10^7 CFU/50 ? L. To generate skin infection, female CD-1 mice (6 weeks old) were anesthetized with isoflurane and had their backs shaved. A superficial linear skin abrasion was made with a needle in order to damage the stratum corneum and upper-layer of the epidermis. Five minutes after wounding, an aliquot of 50 ? L containing 5×10^7 CFU of bacteria in PBS was inoculated over each defined area containing the scratch with a pipette tip. One day after the infection, peptides were administered to the infected area. Animals were euthanized and the area of scarified skin was excised two and four days post-infection, homogenized using a bead beater for 20 minutes (25 Hz), and serially diluted for CFU quantification. Two independent experiments were performed with 4 mice per group in each condition. Statistical significance was assessed using a one-way ANOVA.

P. aeruginosa = assay: MIC against P. aeruginosa (strain not given); format: cell-based, Pseudomonas aeruginosa
Text: FIGS. 2A-2E. Design, physicochemical features and activity of Pol-CP—NH2 and Ala-scan analogs. FIG. 2A. Theoretical physicochemical properties of interest of the wild type and Ala-scan analogs, where H denotes hydrophobicity, μH is the hydrophobic moment, q represents the net charge and P/N is the ratio of polar/non-polar residues in the sequence. Top to bottom, left to right the sequences correspond to SEQ ID NOs: 1-13. FIG. 2B. Schematic of the in vitro biological activity experimental design. Briefly, 10^4 bacterial cells and serially diluted peptides (0-128 μmol L^−1) were added to a 96-well plate and incubated at 37° C. One day after the exposure, the solution in each well was measured in a microplate reader (600 nm) to check inhibition of bacteria compared to the untreated controls and presented as heat maps of antimicrobial activities (μmol L^−1) against four bacteria strains: E. coli strain BL21, S. aureus strain ATCC12600 and P. aeruginosa strains PA01, and PA14. Assays were performed in triplicates. FIG. 2C. Graph correlating MIC (μmol L^−1) averages vs H and (FIG. 2D) MIC (μmol L^−1) averages vs μH, where dots […] the dashed line show peptides with higher activity compared to the wild type, in which one can observe ranges of optimal activity in determined intervals of H and μH values. FIG. 2E. […]

Row | Substance | HC50 (human red blood cells) [µmol/L] | hemolytic activity (concentration at which hemolytic) (human red blood cells; human red blood cells, range evaluated 0-100 μmol L^−1) [µmol/L] | hemolytic activity (human red blood cells) | mouse body weight [1] | toxicity to mice ([1]; single dose) | activity against P. aeruginosa (P. aeruginosa; in vitro, selection of peptides for the mouse model) | MIC against P. aeruginosa (P. aeruginosa; strain not stated) [µM]
1 | H-ILGTILKLLKSL-NH2 [Peptide 16, ILGTILKLLKSL-NH2] | 12.5 | 12.5 | hemolytic | did not change significantly | non-toxic | high activity | –
2 | H-ILGTILGLLKSL-NH2 [WT, ILGTILGLLKSL-NH2, reference compound] | 50.0 | – | hemolytic | did not change significantly | – | – | 64
